Laboratory results: publication PMC5428013, “Peptide-Au Clusters Induced Tumor Cells Apoptosis via Targeting Glutathione Peroxidase-1: The Molecular Dynamics Assisted Experimental Studies” (Scientific Reports, 2017)
Entries after “also recorded” stand apart in the source; their conditions may differ.

Experiments:
A549 cells [1] = test: Cell viability assay (CCK-8), A549; assay type: cell-based, human; conditions: 48 h; for cell viability suppression by peptide-Au clusters (words): A549, Au dose 0, 50, 100, 200, 400, 800 µM
Procedure: (§1) Briefly, cells were prior cultured on 96-well plates (at the density of 5 × 10^3 cells/well) for 24 h to allow cells attachment. The cells were treated with different doses of these free peptides (0, 1, 4, 16, 64, 256, 1024 µM) and peptide-Au clusters (0, 50, 100, 200, 400, 800 µM in Au dose) for 48 h, respectively. The cells were washed three times with PBS and then incubated with fresh growth medium containing 10% (v/v) CCK-8 reagent for 1 h at 37 °C for cell viability assay. The absorbance was measured at 450 nm by using a microplate reader (SpectraMAX M2, Sunnyvale, California). Cell viability of untreated cells was set as 100%, and that of treated cells were expressed as a relative percentage of untreated cells. All data were shown as mean percentages ± standard deviation from three independent experiments.

GPx-1 [2] = test: GPx-1 expression in A549 cells, western blotting; assay type: cell-based, human; conditions: Au dose 0, 100, 200, 400, 800 μM, 48 h
Procedure: The expression of GPx-1, caspase-3 and PARP from Au25P1_9 treated A549 cells were analyzed by western blotting. A549 cells were prior seeded on 6-well plate (at the density of 1 × 10^5 cells/well) for 24 h. Then the medium was discarded and fresh culture medium with Au25P1_9 at different doses was added to make cells exposed to final Au doses at 0, 100, 200, 400 and 800 μM, respectively. After another 48 h incubation, the cells were harvested and lysed by cell lysis buffer for Western and IP (containing 20 mM Tris-HCl, pH7.5, 150 mM NaCl, 1% Triton X-100, sodium pyrophosphate, β-glycerophosphate, EDTA, Na3VO4 and leupeptin), protease inhibitor cocktail tablet and 1 mM PMSF for 15 min on a shaker at 4 °C. The lysed cells were collected and centrifuged for 15 min at 12,000 g to get total protein of cells. The protein dose of each sample was prior quantified, and then loading buffer was added. After boiling for 5 min, the protein samples with equal amount were separated on 12% SDS polyacrylamide gel electrophoresis and then transferred onto the polyvinylidene difluoride (PVDF) membrane. Membrane was blocked by 5% nonfat dried milk prepared in tris(hydroxymethyl)amin omethane-NaCl-Tween 20 (TBST) at room temperature for 1 h, and then incubated with primary antibodies specific to β-actin, Caspase-3, PARP and GPx-1 at 4 °C overnight, respectively. […]

A549 cells [3] = test: Intracellular ROS level by CLSM (CM-H2DCFDA); assay type: cell-based, human; conditions: Au25P1_9, final Au dose 800 µM, 48 h, 5 µM CM-H2DCFDA
Procedure: For CLSM observation, cells were prior cultured on glass-bottom dishes. Au25P1_9 was added to culture medium and the final Au dose was 800 µM. After 48 h. the cells were washed three times with PBS and incubated with 5 µM CM-H2DCFDA, at 37 °C under darkness for 30 min. Before CLSM observation, the culture medium was discarded and the cells were washed three times with PBS, supplemented with fresh culture medium. Finally, ROS in cells were highlighted by green fluorescence emission of CM-H2DCFDA, imaged under Nikon Ti-e microscope with excitation at wavelengths of 488 nm. For flow cytometry analysis, cells were prior seeded on 6-well plate (at the density of 1 × 10^5 cells/well) for 24 h. Then the medium was discarded and fresh culture medium containing Au25P1_9 with Au dose at 800 μM was added. For another 48 h incubation, the cells were washed thrice with PBS, and incubated with 5 µM CM-H2DCFDA at 37 °C under darkness for 30 min. After washing with PBS, the cells were collected and suspended in ice cold PBS. Fluorescence intensity of 20,000 events was recorded using an Accuri C6 flow cytometer and the level of intracellular ROS was analyzed by Cflow software.

GPx-1 [4] = test: Cellular GPx-1 activity in treated A549 cells; assay type: cell-based, human; conditions: 48 h
Procedure: (§2) A549 cells were prior seeded on 6-well plate (at the density of 1 × 10^5 cells/well) for 24 h. Then the medium was discarded and fresh culture medium with Au25P1_9 at different doses was added to make cells exposed to final Au doses at 0, 100, 200, 400 and 800 μM, respectively. After another 48 h incubation, the cells were washed thrice with PBS and lysed by cell lysis buffer containing 1 mM PMSF for 15 min on a shaker at 4 °C. The lysed cells were collected and centrifuged for 20 min at 12,000 g to get total protein of cells. The protein dose of each sample was quantified by BCA Protein Assay Kit and the GPx-1 activity of peptide-Au clusters treated A549 cells was measured by GPx Activity Colorimetric Assay Kit, respectively. For the control experiments, a series of Au doses of Au25P1_9 at 0, 5, 25, 100, 400 μM were incubated with the GPx-1 containing cell lysate of A549 cells for 10 min and the GPx-1 activity of theses samples was also measured. The GPx-1 activity of untreated samples was set as 100%, and that of peptide-Au clusters treated samples were expressed as a relative percentage of untreated ones.

GPx-1 [5] = test: GPx-1 activity in A549 cell lysate; assay type: biochemical, human; conditions: Au dose 0, 5, 25, 100, 400 μM, 10 min
Procedure: as §2

A549 cells [6] = test: Uptake of Au25P1_9 by A549 cells determined by ICP-MS; assay type: cell-based, human; conditions: Au dose 0, 100, 200, 400, 800 μM, 48 h
Procedure: The cells were cultured in medium supplemented with 10% fetal bovine serum and 1% penicillin and streptomycin in a culture flask (25 cm^2), reseeded every 2–4 days to maintain subconfluency and kept in humidified atmosphere of 95% air and 5% CO2 at 37 °C. After cells reaching 80% confluence during the exponential growth in culture flask, the cells were harvested and subcultured on 6-well plate (at the density of 1 × 10^5 cells/well) for 24 h. Then the medium was discarded and fresh culture medium with Au25P1_9 at different doses was added to make cells exposed to final Au doses at 0, 100, 200, 400 and 800 μM, respectively. After another 48 h incubation, the cells were treated with trypsin and collected, and then washed thrice with PBS. 5 × 10^5 cells of each sample counted by flow cytometry were predigested by HNO3 and H2O2 at a volume ratio of 3:1 for 12 h and further digested by aqua regia at 160 °C, and then diluted to 10 mL aqueous solution with 1% HCl and 2% HNO3. Finally, the amount of Au25P1_9 taken into cells was measured by ICP-MS with Au calibration curve.

Hela cells = test: Cell viability assay (CCK-8), Hela; assay type: cell-based; conditions: same condition as A549
Procedure: as §1

CCYGGPEEEEEVG [Au25P1_9, Au25 cluster coated by nine P1 peptides (…)]
cell viability suppression by peptide-Au clusters (words) (A549 cells [1]): can suppress cell viability | cell viability suppression by peptide-Au clusters (words) (A549 cells [1]; listed as Au25P19): exhibits the best suppression capacity for A549 cell viability | cell viability (relative to untreated = 100%) (A549 cells [1]; A549, Au dose of 800 μM, CCK-8, mean from three independent experiments): 40% | GPx-1 expression level (GPx-1 [2]): GPx-1 level remains stable | intracellular ROS by CLSM (A549 cells [3]): obvious green fluorescence, a sign of increased intracellular ROS | cellular GPx-1 activity (relative to untreated = 100%) (GPx-1 [4]; 800 μM of Au): 27% | cellular GPx-1 activity (GPx-1 [4]; Au dose 0, 100, 200, 400, 800 μM): significantly decreases as Au25P1_9 dose increase; also recorded: the most effective candidate for suppression of GPx-1 activity in buffer and cells | GPx-1 activity in cell lysate (GPx-1 [5]): suppressed via an Au dose dependent manner | cellular uptake (A549 cells [6]): dosage dependent manner | change of cell viability (Hela cells): almost negligible
